Legend:
Format in all cases: physicochemical
Solution stability = assay: Solution stability
Description: 0.1 mg/ml solutions of Form B were prepared in five buffers, including 0.01N HCl (pH 2), 50 mM sodium citrate (pH 4), 50 mM sodium citrate (pH 6), 50 mM sodium phosphate (pH 8), and 50 mM sodium carbonate (pH 10). Methanol was added as a co-solvent to dissolve Form B in buffers (i.e., 10% (v/v) in pH 2, 4, and 6 buffers, 20% (v/v) in pH 8 buffer, and 30% (v/v) in pH 10 buffer). Each buffer solution containing Form B was stored at 3 different temperatures: 25° C., 37° C., and 50° C. Aliquots were taken for HPLC analysis after 1 day and 7 days. pH values were also measured before and after the stability experiments.

[1] = Dynamic vapor sorption (DVS) hygroscopicity; conditions: between 0% and 95% RH, 25° C.
Description: (peak temperature) which is accompanied by 5.9 wt % weight loss up to ˜150° C. in the TGA curve (FIG. 3). […] A solid is considered moderately hygroscopic when water uptake at 25° C./80% RH is between 2-15 wt % based on criteria of European Pharmacopeia. […] Form B of EP-1 trihydrate (x is 3) is a trihydrate as confirmed by single crystal analysis. The experimental XRPD pattern of Form B matches well with the simulated one from single crystal data (FIG. 6). This was also confirmed by DSC and TGA data (FIG. 7 and FIG. 8, respectively). DSC data indicates Form B dehydrates at ˜132° C. […] Form B is slightly hygroscopic as evidenced by a weight change of ˜0.3% between 0% and 95% RH (FIG. 9), (data collection was programmed from 95% RH-0% RH-95% RH at a step size of 10% RH at 25° C.).

[2] = Solubility in Simulated Gastric Fluid (SGF) at 37° C.; conditions: for Resulting Solid: XRPD
Description: To study if Form A and Form B would perform differently in stomach, the solubilities of Form A and Form B were measured in Simulated Gastric Fluid (SGF, see below for SGF preparation) at 37° C. […] The remaining solids after each time point were subject to XRPD analysis. […] Weigh appropriate amount of hydrochloride (HCl) and sodium chloride (NaCl) into a 1-L flask followed by addition of 1-L deionized water. The mixture was stirred until all solids are dissolved. Check pH value with a pH-meter and adjust the pH to 1.8 with HCl (1N) or NaOH (1N).

[3] = Slurry experiments using Form A and Form B (relative stability)
Description: The relative stability between Form A and Form B was investigated by slurry experiments in ACN (containing less than 0.3 wt % water), ACN/H2O (v/v, 3; 1), and H2O at room temperature and 50° C. In general, about 10-30 mg Form A was added to a 5-ml glass vial with 0.5 ml corresponding solvents to get suspensions at room temperature and 50° C., respectively. Then 10-30 mg Form B was added to the suspensions which were kept stirring for 24 h. The water activity was calculated using the UNIFAC model.

CC(C)N(C[C@H]1O[C@@H](n2cnc3c(N)ncnc32)[C@H](O)[C@@H]1O)[C@H]1C[C@@H](CCc2nc3cc(C(C)(C)C)ccc3[nH]2)C1 [Form B, (2R,3R,4S,5R)-2-(6-amino-9H-purin-9-yl)-5-((((1r,3S)-3-(2-(5-(tert-butyl)-1H-benzo[d]imidazol-2-yl)ethyl)cyclobutyl)(isopropyl)amino)methyl)tetrahydrofuran-3,4-diol trihydrate]
% area (Solution stability; pH 2, 25° C., 24 h): 98.7%
% claim (Solution stability; pH 2, 25° C., 24 h): 97.1%
pH (Solution stability; pH 2, 25° C., 24 h): 2.1
% area (Solution stability; pH 2, 25° C., 7 days): 98.5%
% claim (Solution stability; pH 2, 25° C., 7 days): 99.1%
pH (Solution stability; pH 2, 25° C., 7 days): 2.1
% area (Solution stability; pH 2, 37° C., 24 h): 98.7%
% claim (Solution stability; pH 2, 37° C., 24 h): 96.8%
pH (Solution stability; pH 2, 37° C., 24 h): 2.1
% area (Solution stability; pH 2, 37° C., 7 days): 98.4%
% claim (Solution stability; pH 2, 37° C., 7 days): 97.5%
pH (Solution stability; pH 2, 37° C., 7 days): 2.1
% area (Solution stability; pH 2, 50° C., 24 h): 98.3%
% claim (Solution stability; pH 2, 50° C., 24 h): 97.0%
pH (Solution stability; pH 2, 50° C., 24 h): 2.1
% area (Solution stability; pH 2, 50° C., 7 days): 98.4%
% claim (Solution stability; pH 2, 50° C., 7 days): 97.0%
pH (Solution stability; pH 2, 50° C., 7 days): 2.1
degradation in solution (Solution stability; pH 2-10 buffers, 25-50° C., up to 7 days): less than 5%
% area (Solution stability; pH 4, 25° C., 24 h): 99.4%
% claim (Solution stability; pH 4, 25° C., 24 h): 97.4%
pH (Solution stability; pH 4, 25° C., 24 h): 4.2
% area (Solution stability; pH 4, 25° C., 7 days): 99.6%
% claim (Solution stability; pH 4, 25° C., 7 days): 100.2%
pH (Solution stability; pH 4, 25° C., 7 days): 4.2
% area (Solution stability; pH 4, 37° C., 24 h): 99.4%
% claim (Solution stability; pH 4, 37° C., 24 h): 97.6%
pH (Solution stability; pH 4, 37° C., 24 h): 4.1
% area (Solution stability; pH 4, 37° C., 7 days): 99.5%
% claim (Solution stability; pH 4, 37° C., 7 days): 99.0%
pH (Solution stability; pH 4, 37° C., 7 days): 4.1
% area (Solution stability; pH 4, 50° C., 24 h): 99.4%
% claim (Solution stability; pH 4, 50° C., 24 h): 97.6%
pH (Solution stability; pH 4, 50° C., 24 h): 4.1
% area (Solution stability; pH 4, 50° C., 7 days): 99.5%
% claim (Solution stability; pH 4, 50° C., 7 days): 98.7%
pH (Solution stability; pH 4, 50° C., 7 days): 4.2
% area (Solution stability; pH 6, 25° C., 24 h): 99.2%
% claim (Solution stability; pH 6, 25° C., 24 h): 98.0%
pH (Solution stability; pH 6, 25° C., 24 h): 6.2
% area (Solution stability; pH 6, 25° C., 7 days): 99.5%
% claim (Solution stability; pH 6, 25° C., 7 days): 100.0%
pH (Solution stability; pH 6, 25° C., 7 days): 6.2
% area (Solution stability; pH 6, 37° C., 24 h): 99.3%
% claim (Solution stability; pH 6, 37° C., 24 h): 97.9%
pH (Solution stability; pH 6, 37° C., 24 h): 6.2
% area (Solution stability; pH 6, 37° C., 7 days): 99.4%
% claim (Solution stability; pH 6, 37° C., 7 days): 99.0%
pH (Solution stability; pH 6, 37° C., 7 days): 6.3
% area (Solution stability; pH 6, 50° C., 24 h): 99.3%
% claim (Solution stability; pH 6, 50° C., 24 h): 98.1%
pH (Solution stability; pH 6, 50° C., 24 h): 6.2
% area (Solution stability; pH 6, 50° C., 7 days): 99.5%
% claim (Solution stability; pH 6, 50° C., 7 days): 98.9%
pH (Solution stability; pH 6, 50° C., 7 days): 6.2
% area (Solution stability; pH 8, 25° C., 24 h): 99.2%
% claim (Solution stability; pH 8, 25° C., 24 h): 98.0%
pH (Solution stability; pH 8, 25° C., 24 h): 8.2
% area (Solution stability; pH 8, 25° C., 7 days): 99.5%
% claim (Solution stability; pH 8, 25° C., 7 days): 99.8%
pH (Solution stability; pH 8, 25° C., 7 days): 8.2
% area (Solution stability; pH 8, 37° C., 24 h): 99.5%
% claim (Solution stability; pH 8, 37° C., 24 h): 98.4%
pH (Solution stability; pH 8, 37° C., 24 h): 8.2
% area (Solution stability; pH 8, 37° C., 7 days): 99.5%
% claim (Solution stability; pH 8, 37° C., 7 days): 99.3%
pH (Solution stability; pH 8, 37° C., 7 days): 8.3
% area (Solution stability; pH 8, 50° C., 24 h): 99.5%
% claim (Solution stability; pH 8, 50° C., 24 h): 98.0%
pH (Solution stability; pH 8, 50° C., 24 h): 8.3
% area (Solution stability; pH 8, 50° C., 7 days): 99.5%
% claim (Solution stability; pH 8, 50° C., 7 days): 98.8%
pH (Solution stability; pH 8, 50° C., 7 days): 8.3
% area (Solution stability; pH 10, 25° C., 24 h): 99.4%
% claim (Solution stability; pH 10, 25° C., 24 h): 98.0%
pH (Solution stability; pH 10, 25° C., 24 h): 10.9
% area (Solution stability; pH 10, 25° C., 7 days): 99.4%
% claim (Solution stability; pH 10, 25° C., 7 days): 99.7%
pH (Solution stability; pH 10, 25° C., 7 days): 10.9
% area (Solution stability; pH 10, 37° C., 24 h): 99.4%
% claim (Solution stability; pH 10, 37° C., 24 h): 98.2%
pH (Solution stability; pH 10, 37° C., 24 h): 10.9
% area (Solution stability; pH 10, 37° C., 7 days): 99.4%
% claim (Solution stability; pH 10, 37° C., 7 days): 99.0%
pH (Solution stability; pH 10, 37° C., 7 days): 10.9
% area (Solution stability; pH 10, 50° C., 24 h): 99.5%
% claim (Solution stability; pH 10, 50° C., 24 h): 97.9%
pH (Solution stability; pH 10, 50° C., 24 h): 11.0
% area (Solution stability; pH 10, 50° C., 7 days): 99.4%
% claim (Solution stability; pH 10, 50° C., 7 days): 98.9%
pH (Solution stability; pH 10, 50° C., 7 days): 10.9
weight change (DVS) [1]: ~0.3%
Final pH [2]: 5.3
Resulting Solid ([2]; 15 min): Type B
Resulting Solid ([2]; 30 min): Type B
Resulting Solid ([2]; 60 min): Type B
solubility at 15 min ([2]; Simulated Gastric Fluid (SGF), pH 1.8, simulated gastric fluid, thermodynamic from solid, 15 min, calculated using free base content): 5400 µg/mL
solubility at 30 min ([2]; Simulated Gastric Fluid (SGF), pH 1.8, simulated gastric fluid, thermodynamic from solid, 30 min, calculated using free base content): 5400 µg/mL
solubility at 60 min ([2]; Simulated Gastric Fluid (SGF), pH 1.8, simulated gastric fluid, thermodynamic from solid, 60 min, calculated using free base content): 5600 µg/mL
water activity at which Form B is thermodynamically more stable than Form A ([3]; 50° C.): ≥ 0.08
water activity at which Form B is thermodynamically more stable than Form A ([3]; RT): ≥ 0.09
